Values joined by “and” are separate entries in the source; they are usually repeats but may differ in a detail not shown here. Equal entries are not always repeated.

A short description of data set [1]: "writhing syndrome" test for analgesic activity (phenyl-p-quinone). In kind it is in vivo, male Swiss albino mice. The settings on record: 100 mg./kg. oral, 30 minutes before phenyl-p-quinone; 3 minute count commencing 15 minutes after; control approximately 30 per pair; active if 18 or less. The text has this: The substituted enaminoketones of the present invention are active analgesics when measured by the "writhing syndrome" test for analgesic activity as described by Siegmund, et al., Proc. Soc. Exp. Bio. and Med., 95, 729 (1957), with modifications. This method is based upon the reduction of the number of writhes following the intraperitoneal injection of one mg./kg. of body weight of phenyl-p-quinone in male Swiss albino mice weighing 18-25 gm. The syndrome is characterized by intermittent contractions of the abdomen, twisting and turning of the trunk, and extension of the hind legs beginning 3 to 5 minutes after injection of the phenyl-p-quinone. The test compounds are administered orally at the indicated dose to groups of 2 mice each, 30 minutes before injection of the phenyl-p-quinone. […] A compound is considered active if it reduces the total number of writhes in 2 test mice from a control value of approximately 30 pair to a value of 18 or less. Table I summarized the results of this test on representative compounds of this invention.

Data set [2] can be described thus: Water solubility of salts. In kind it is physicochemical.
A short description of data set [3]: Walking gait test in rats with yeast-inflamed paw (modified Atkinson and Cowan). The settings on record: oral by gavage, dose producing 50% reversal of the pre-dose gait score, one and/or two hours post-drug. In kind it is in vivo, male, albino Wistar strain rats. The method, then: Atkinson and A. Cowan, J. Pharm. Pharmac, 26, 727 (1974).
In this test male, albino Wistar strain rats from Royalhart farms, weighing 120-150 g. are deprived of food for about 20 hours. A 40% suspension of brewers' yeast in physiological saline is injected, at a concentration of 0.25 ml/rat into the plantar surface of the left hind paw of each rat. 3 hours later, at which time an inflammation of the injected paw has developed, a pre-drug assessment of walking gait is made for each rat according to the following scoring system:
0 = Normal gait in the presence of a severely inflammed paw. There is continuous use of the foot pad.
0.5 = As above with intermittent mild limping.
1.0 = Constant limping, but continuous use of the foot pad.
1.5 = Limping with occasional three-legged gait (paw kept off walking surface) or intermittent use of digits in combination with foot pad.
2.0 = Continuous three-legged gait and/or only the tips of the digits touch the walking surface. There is no use of foot pad.
Compounds, in a suitable vehicle, are administered orally by gavage in a volume of 0.5 ml./100 g. of body weight. One and/or two hours later a post-drug assessment of walking gait is made as described above. The criterion of an analgesic response for each rat is a 50% reversal of the abnormal gait score (post-drug) from the pre-drug score. […]

Data set [4] in a line: Brewer's Yeast Pressure Pain Test (modified Randall and Selitto). In kind it is in vivo, rats. The method, then:
To determine analgesic activity, a modification of the method of Randall and Selitto [Arch. int. Pharmacodyn., 111, 409 (1957)] is used. This test measures the pain threshold of rats whose paws are made sensitive to pressure by the injection of a 20% aqueous suspension (0.1 ml.) of brewers' yeast into the plantar surface of the left hind paw. Constantly increasing force (16 grams/second) is applied to the swollen paw using an Analgesy Meter, Ugo Basile. The pressure is cut off at 250 grams of force when there is no response (sudden struggle or vocalization). Control rats treated with the starch vehicle response to a pressure or force of about 30 grams. Pressure-pain thresholds are always recorded 2 hours after brewers' yeast. Analgesic agents are administered at the same time as the yeast, at a dose of 200 mg./kg. orally. Ratios of treated (T)/control (C) reaction thresholds are calculated as estimates of analgesic efficacy (degree of analgesia attainable). Potency is regarded as the dose necessary to produce a given level of analgesia (i.e. 100% elevation of pain threshold is T/C=2.0).

Data set [5] is described as follows: Antipyretic activity, brewers' yeast-induced hyperthermia (modified Teotino et al.). In kind it is in vivo, rats. On the procedure:
The compounds of this invention also show antipyretic activity by their ability to reduce a hyperthermic response in warm-blooded animals, e.g., rats, induced by the subcutaneous injection of a suspension of brewers' yeast. This is a modification of the method described by Teotino, et al., J. Med. Chem. 6, 248 (1963). A 40% suspension of brewer's yeast in distilled water is administered to groups of five to ten rats subcutaneously (1.0 ml./100 g. of body weight). Eighteen hours later, rectal temperatures are recorded and compounds, control vehicle (2% starch suspension) or aspirin is administered. Rectal temperatures are recorded 4 hours later and the results are compared with the starch treated controls and with aspirin, a reference antipyretic agent.

`NC(=CC(=O)c1cnccn1)C1CC1` [1-amino-1-cyclopropyl-3-(2-pyrazinyl)-1-propen-3-one]: in data set [1], the “No. of writhes per pair” value is listed as 3.8.

On to `c1cncc(-c2cc(C3CC3)no2)c1` [3-(3-cyclopropyl-5-isoxazolyl)pyridine], for which the water solubility entry in data set [2] (sulfate salt) is recorded as “water soluble”.

With `c1cncc(-c2cc(C3CC3)on2)c1` [3-(5-cyclopropyl-3-isoxazolyl)pyridine], the solubility entry in data set [2] (acetate salt) is given as “slightly soluble”.

What is called ED50 is the dose that gives a 50% effect, or the effect in half of the subjects. As to `NC(=CC(=O)c1cccnc1)C1CC1` [3-amino-3-cyclopropyl-1-(3-pyridyl)-2-propen-1-one], the 50% effective dose (ED50) in data set [3] (Rattus norvegicus, po, 2 h, read-out: ED50) is 27 mg/kg; in data set [3] it was 40 mg/kg and 26 mg/kg.

As to `NC(=CC(=O)c1ccncc1)C1CC1` [3-amino-3-cyclopropyl-1-(4-pyridyl)-2-propen-1-one], the “Ratio (Treated/Control) Measured at 2 Hours Following 200 mg./kg. Oral Dose” value in data set [4] (200 mg./kg. orally, 2 hours after brewers' yeast, ratio of reaction thresholds T/C) was 1.45 and 1.39. In data set [4] (Rattus norvegicus, 2 h, oral, Brewer's Yeast Pressure Pain Test), this compound yielded an ED50 of 25 mg/kg. Also, the “No. of writhes per pair” value in data set [1] was 9.4. Moreover, the “effect on body temperature of normal rats” value in data set [5] (200 mg./kg., normal rats) is “not effecting the body temperature of normal rats”. Also, in data set [5] (200 mg./kg., rectal temperature 4 hours later, yeast-treated rats), the “lowering the yeast-elevated body temperature of rats” value was “effective in lowering the yeast-elevated body temperature of rats”.

For `c1cc(-c2cc(C3CC3)no2)ccn1` [4-(3-cyclopropyl-5-isoxazolyl)pyridine], the water solubility result in data set [2] (phosphate salt) is on record as “water soluble”.

As to `c1cc(-c2cc(C3CC3)on2)ccn1` [4-(5-cyclopropyl-3-isoxazolyl)pyridine], the water solubility result in data set [2] (citrate salt) is reported as “slightly water soluble”.

For `CC(=O)Oc1ccccc1C(=O)O` [Aspirin, reference compound], in data set [5] (aspirin reference, dose not given, normal rats), the “effect on temperature of normal rats” value is “not effecting the temperature of normal rats”. In data set [5] (aspirin reference, dose not given, yeast-treated rats), the lowering yeast-elevated temperatures result is “similarly effective in lowering yeast-elevated temperatures”.

Source of the values: patent US3997530A, “Substituted enaminoketones” (American Cyanamid Company, priority 1976, dated 1976).
